ChEMBL document CHEMBL5143732 (J Med Chem, 2022)
Converted amounts (≈) assume the structure as drawn.

Tests used:
Format in all cases: functional
Candida tropicalis = assay: Antifungal activity against Candida tropicalis assessed as inhibition of fungal growth measured after 48 hrs by CLSI based agar dilution method
Pichia kudriavzevii [1] = assay: Antifungal activity against Candida krusei assessed as inhibition of fungal growth measured after 48 hrs by CLSI based agar dilution method
Candida parapsilosis = assay: Antifungal activity against Candida parapsilosis assessed as inhibition of fungal growth measured after 48 hrs by CLSI based agar dilution method; conditions: Lodderomyces parapsilosis
Cryptococcus neoformans = assay: Antifungal activity against Cryptococcus neoformans ATCC 32609 assessed as inhibition of fungal growth measured after 48 hrs by CLSI based agar dilution method
Candida albicans = assay: Antifungal activity against Candida albicans assessed as inhibition of fungal growth measured after 48 hrs by CLSI based agar dilution method
Pichia kudriavzevii [2] = assay: Antifungal activity against Candida krusei ATCC 6258 assessed as inhibition of fungal growth measured after 48 hrs by CLSI based agar dilution method

Compound	MIC (Candida tropicalis)	MIC (Pichia kudriavzevii [1])	MIC (Candida parapsilosis)	MIC (Cryptococcus neoformans)	MIC (Candida albicans)	MIC (Pichia kudriavzevii [2])
CNCC(=O)N[C@@H]1[C@H](O)[C@H](O[C@H]2/C=C/C=C/C=C/C=C/C=C/C=C/C=C/[C@H](C)[C@@H](O)[C@@H](C)[C@H](C)OC(=O)C[C@H](O)C[C@H](O)CC[C@@H](O)[C@H](O)C[C@H](O)C[C@]3(O)C[C@H](O)[C@@H](C(=O)N4CCN(CCS(C)(=O)=O)CC4)[C@H](C2)O3)O[C@H](C)[C@H]1O	4 µg/mL (≈ 3.42 µM)	4 µg/mL (≈ 3.42 µM)	2 µg/mL (≈ 1.71 µM)	2 µg/mL (≈ 1.71 µM)	2 µg/mL (≈ 1.71 µM)	16 µg/mL (≈ 13.7 µM)
C[C@@H]1[C@H](O)[C@@H](C)/C=C/C=C/C=C/C=C/C=C/C=C/C=C/[C@H](O[C@@H]2O[C@H](C)[C@@H](O)[C@H](N)[C@@H]2O)C[C@@H]2O[C@](O)(C[C@@H](O)C[C@@H](O)[C@H](O)CC[C@@H](O)C[C@@H](O)CC(=O)O[C@H]1C)C[C@H](O)[C@H]2C(=O)NNC(=O)c1ccccc1	4 µg/mL (≈ 3.84 µM)	1 µg/mL (≈ 0.959 µM)	4 µg/mL (≈ 3.84 µM)	0.5 µg/mL (≈ 0.48 µM)	0.5 µg/mL (≈ 0.48 µM)	2 µg/mL (≈ 1.92 µM)
C[C@@H]1[C@H](O)[C@@H](C)/C=C/C=C/C=C/C=C/C=C/C=C/C=C/[C@H](O[C@@H]2O[C@H](C)[C@@H](O)[C@H](N)[C@@H]2O)C[C@@H]2O[C@](O)(C[C@@H](O)C[C@@H](O)[C@H](O)CC[C@@H](O)C[C@@H](O)CC(=O)O[C@H]1C)C[C@H](O)[C@H]2C(=O)NNC(=O)c1ccc(Cl)cc1	8 µg/mL (≈ 7.43 µM)	8 µg/mL (≈ 7.43 µM)	16 µg/mL (≈ 14.9 µM)	2 µg/mL (≈ 1.86 µM)	4 µg/mL (≈ 3.72 µM)	16 µg/mL (≈ 14.9 µM)
CNCC(=O)N[C@@H]1[C@H](O)[C@H](O[C@H]2/C=C/C=C/C=C/C=C/C=C/C=C/C=C/[C@H](C)[C@@H](O)[C@@H](C)[C@H](C)OC(=O)C[C@H](O)C[C@H](O)CC[C@@H](O)[C@H](O)C[C@H](O)C[C@]3(O)C[C@H](O)[C@@H](C(=O)NCCN(C)C)[C@H](C2)O3)O[C@H](C)[C@H]1O	4 µg/mL (≈ 3.75 µM)	2 µg/mL (≈ 1.88 µM)	2 µg/mL (≈ 1.88 µM)	0.5 µg/mL (≈ 0.469 µM)	2 µg/mL (≈ 1.88 µM)	16 µg/mL (≈ 15 µM)
C[C@@H]1[C@H](O)[C@@H](C)/C=C/C=C/C=C/C=C/C=C/C=C/C=C/[C@H](O[C@@H]2O[C@H](C)[C@@H](O)[C@H](NC(=O)CN)[C@@H]2O)C[C@@H]2O[C@](O)(C[C@@H](O)C[C@@H](O)[C@H](O)CC[C@@H](O)C[C@@H](O)CC(=O)O[C@H]1C)C[C@H](O)[C@H]2C(=O)NCCCN(C)C	16 µg/mL (≈ 15 µM)	8 µg/mL (≈ 7.51 µM)	8 µg/mL (≈ 7.51 µM)	2 µg/mL (≈ 1.88 µM)	1 µg/mL (≈ 0.939 µM)	32 µg/mL (≈ 30 µM)

More lines, now with the values ahead:

MIC (Candida tropicalis)	MIC (Pichia kudriavzevii [1])	MIC (Candida parapsilosis)	MIC (Cryptococcus neoformans)	MIC (Candida albicans)	MIC (Pichia kudriavzevii [2])	Compound
4 µg/mL (≈ 3.42 µM)	1 µg/mL (≈ 0.855 µM)	16 µg/mL (≈ 13.7 µM)	1 µg/mL (≈ 0.855 µM)	1 µg/mL (≈ 0.855 µM)	16 µg/mL (≈ 13.7 µM)	CNCC(=O)N[C@@H]1[C@H](O)[C@H](O[C@H]2/C=C/C=C/C=C/C=C/C=C/C=C/C=C/[C@H](C)[C@@H](O)[C@@H](C)[C@H](C)OC(=O)C[C@H](O)C[C@H](O)CC[C@@H](O)[C@H](O)C[C@H](O)C[C@]3(O)C[C@H](O)[C@@H](C(=O)N4CCN(C(=O)c5ccncn5)CC4)[C@H](C2)O3)O[C@H](C)[C@H]1O
1 µg/mL (≈ 0.937 µM)	0.125 µg/mL (≈ 0.117 µM)	4 µg/mL (≈ 3.75 µM)	0.5 µg/mL (≈ 0.468 µM)	0.125 µg/mL (≈ 0.117 µM)	2 µg/mL (≈ 1.87 µM)	CNCC(=O)N[C@@H]1[C@H](O)[C@H](O[C@H]2/C=C/C=C/C=C/C=C/C=C/C=C/C=C/[C@H](C)[C@@H](O)[C@@H](C)[C@H](C)OC(=O)C[C@H](O)C[C@H](O)CC[C@@H](O)[C@H](O)C[C@H](O)C[C@]3(O)C[C@H](O)[C@@H](C(=O)NNC(=O)OC)[C@H](C2)O3)O[C@H](C)[C@H]1O
0.25 µg/mL (≈ 0.241 µM)	0.5 µg/mL (≈ 0.482 µM)	0.125 µg/mL (≈ 0.121 µM)	0.25 µg/mL (≈ 0.241 µM)	0.125 µg/mL (≈ 0.121 µM)	1 µg/mL (≈ 0.964 µM)	C[C@@H]1[C@H](O)[C@@H](C)/C=C/C=C/C=C/C=C/C=C/C=C/C=C/[C@H](O[C@@H]2O[C@H](C)[C@@H](O)[C@H](NC(=O)CCN)[C@@H]2O)C[C@@H]2O[C@](O)(C[C@@H](O)C[C@@H](O)[C@H](O)CC[C@@H](O)C[C@@H](O)CC(=O)O[C@H]1C)C[C@H](O)[C@H]2C(=O)NCCN
2 µg/mL (≈ 1.9 µM)	1 µg/mL (≈ 0.951 µM)	1 µg/mL (≈ 0.951 µM)	0.5 µg/mL (≈ 0.476 µM)	1 µg/mL (≈ 0.951 µM)	16 µg/mL (≈ 15.2 µM)	C[C@@H]1[C@H](O)[C@@H](C)/C=C/C=C/C=C/C=C/C=C/C=C/C=C/[C@H](O[C@@H]2O[C@H](C)[C@@H](O)[C@H](NC(=O)CN)[C@@H]2O)C[C@@H]2O[C@](O)(C[C@@H](O)C[C@@H](O)[C@H](O)CC[C@@H](O)C[C@@H](O)CC(=O)O[C@H]1C)C[C@H](O)[C@H]2C(=O)NCCN(C)C
0.5 µg/mL (≈ 0.503 µM)	0.5 µg/mL (≈ 0.503 µM)	1 µg/mL (≈ 1.01 µM)	0.03 µg/mL (≈ 0.0302 µM)	0.25 µg/mL (≈ 0.251 µM)	0.5 µg/mL (≈ 0.503 µM)	CCC(=O)NNC(=O)[C@H]1[C@@H]2C[C@@H](O[C@@H]3O[C@H](C)[C@@H](O)[C@H](N)[C@@H]3O)/C=C/C=C/C=C/C=C/C=C/C=C/C=C/[C@H](C)[C@@H](O)[C@@H](C)[C@H](C)OC(=O)C[C@H](O)C[C@H](O)CC[C@@H](O)[C@H](O)C[C@H](O)C[C@](O)(C[C@@H]1O)O2
